Peptide text beside a SMILES is read from it. * marks the point of attachment. Cbz = O=C(OCc1ccccc1)*
Test: yeast 26S proteasome protease site inhibitors – biochemical, fluorogenic peptides, secondary, counter-screen for 26S proteasome disassembly project (AID 2132)
Conditions: fluorogenic peptide cleavage rate, peptide cleavage rate with compound, at 100 µM, stronger effect = lower value

CC(=O)N1C(=O)C(=C2C=C(C)OC(C)=C2)c2ccccc21
cleavage rate (fluorescence units/min) (with Ac-RLR-amc): 0.32
cleavage rate (fluorescence units/min) (with Ac-nLPnLD-amc): 0.2
cleavage rate (fluorescence units/min) (with Suc-LLVY-amc): 0.52

CC(C)C[C@@H](C=O)NC(=O)[C@H](CC(C)C)NC(=O)[C@H](CC(C)C)NC(=O)OCc1ccccc1 (Cbz-Leu-Leu-Leu-aldehyde)
cleavage rate (fluorescence units/min) (with Ac-RLR-amc): 0.41
cleavage rate (fluorescence units/min) (with Ac-nLPnLD-amc): 0.11
cleavage rate (fluorescence units/min) (with Suc-LLVY-amc): 0

Source: PubChem BioAssay AID2132 (NMMLSC, 2009)
